Results reported in patent US6737407B1, “Treatment of obesity” (Metabolic Pharmaceuticals, Ltd., priority 1997, dated 2004).
Where no end group is shown, it is not given here.

Key:
C57BL/6J (ob/ob) mice = test: Plasma triglyceride and total cholesterol in obese mice after 18-day chronic treatment; type: in vivo, mouse; conditions: for Plasma total cholesterol / Plasma triglyceride: after 18-day treatment
Protocol: The animals were anaesthetised with sodium pentobarbitone (80 mg/kg body weight) 12 hr after the last dose of hGH 177-191. Blood samples were collected from the tail vein of anaesthetised animals 45 mins after the administration of anaesthetic. After being centrifuged at 2000×g for 5 minutes, plasma was removed from the samples and used for metabolite assays. Triglyceride and total cholesterol in plasma were measured by enzyme-spectrophotometric methods. The reagents are based on either a modified glycerol phosphate oxidase (GPO)-Trinder's type colour reaction^24 or a cholesterol oxidase-4-aminoantipyrine method^25. All assays were performed with the CentrifiChem System 400 (Union Carbide) containing an automated pipetter, a centrifugal analyser and a recording spectrophotometer. Seronorm Lipid (Nycomed Pharma Co., Oslo, Norway) was used as the calibrator.

[1] = tested on: adipose tissues from male Zucker fatty (fa/fa) rats; test: In vitro glycerol release during lipolysis in isolated adipose tissue; type: cell-based, rat; conditions: adipose tissues isolated from obese animals
Protocol: (§1) Adipose tissues were removed from animals and sliced into segments of approximately 200 mg each. Then the tissues were pre-incubated in 25 ml vials containing 2 ml of Krebs-Ringerbicarbonate (KRB) buffer, 4% defatted BSA and 5.5 mM glucose under an atmosphere of carbogen (95%O2/ 5%CO2) at 37° C. for 1 hour. Tissues were then transferred to another vials with fresh medium and the incubation was initiated by adding hGH 177-191 peptide or analogues into the vials. The mixtures were then incubated at 37° C. for 90 minutes. After incubation, the tissues wee removed and aliquots (200 μl) of samples withdrawn from the medium were assayed for the contents of glycerol or free fatty acid (FFA) either by the enzyme assay (glycerol kinase) or calorimetric (copper-dye) spectrometry. The NADH or color produced was then monitored by the absorption at 340 nm and 610 nm, respectively.

Porcine adipose Tissue = test: Lipolytic activity in porcine adipose tissue; type: cell-based, pig; conditions: 0.5 μM peptide
Protocol: as §1
Since corresponding sequences of non-human mammals are effectively peptide variants of the human sequence, it is also therefore expected that those corresponding sequences will be effective in other mammals including humans.

acetyl-CoA carboxylase = test: Acetyl-CoA carboxylase assay in isolated adipocytes and hepatocytes; type: cell-based, rat
Protocol: Acetyl-CoA carboxylase catalyzes the critical step in fatty acid synthesis. The acetyl-CoA carboxylase activities of both isolated adipocytes and hepatocytes in the presence of hGH 177-191 peptide or analogues were measured for the evaluation of the anti-lipogenic effect of the peptides. The acetyl-CoA carboxylase activity was determined by the [C^14]-bicarbonate fixation reaction—the rate of incorporation of acetyl-CoA dependent H[C^14]O3 into [C^14]-malonyl-CoA.
Adipocytes were prepared with the method described in the HSL assay. Hepatocytes were prepared from the livers of male Wistar rats by collagenase digestion. The liver was finely-cut with scissors and transferred to a 250 ml Erlenmeyer flask containing 30 ml of digestion medium. The digestion medium contained microbial collagenase (Type IV) at a concentration of 30 mg/ml in calcium-free Krebs-Ringer phosphate buffer (pH 7.4) and glucose (5 mM). […]
The isolated cells were first preincubated at 37° C. for 30 minutes in a mixture containing 50 mM Tris-HCl buffer (pH 7.5), 10 mM potassium citrate, 10 mM MgCl2, 1 mM dithiothreitol (DTT), and BSA (0.8 mg/ml). […] The [C^14] radioactivity was measured with a liquid scintillation counter. […] Specific activity of the enzyme was expressed as mU/g cell dry weight, where 1 U of acetyl-CoA carboxylase was defined as that amount which catalyzed the carboxylation of 1 μmole acetyl-CoA per minute.

[2] = tested on: isolated adipose tissues of C57BL/6J (ob/ob) mice; test: Oxidation of free fatty acid in isolated adipose tissues; type: cell-based, mouse; conditions: adipose tissues isolated from obese animals, FIG. 7
Protocol: FIG. 7 illustrates the in vitro effect of hGH 177-191 on fatty acid oxidation in isolated adipose tissues of C57BL/6J (ob/ob) mice with the determination of the rate of [C^14]O2 production from [C^14]-palmitic acid. The rate of [C^14]-palmitic acid oxidation was expressed as μmol/g tissue/hr.
The effect of hGH 177-191 or analogues on the free fatty acid (FFA) oxidation in the adipose tissues is evaluated by the measure of converted [C^14]O2 from C^14-palmitic acid. The [C^14]O2 a final product of FFA oxidation, was trapped by hyamine hydroxide and measured by liquid scintillation counter. The rate of FFA oxidation was then determined by [C^14] radioactivity.
Adipose tissues removed from laboratory animals were sliced into segments of approximately 200 mg each. The tissues in 25 ml vials containing 2 ml of Krebs-Ringer phosphate (KRP) buffer, and 2% defatted bovine serum albumin (BSA) were pre-incubated at 37° C. for 30 minutes under an atmosphere of carbogen (95%O2/5%CO2) Then the tissues were transferred to Konte flasks with fresh incubation medium with 0.15 mM sodium [C^14]-palmitate (final [C^14]-specific activity, 0.20 μCi/μmol) and hGH 177-191 peptide or analogues (1-1000 nM). […] The [C^14] radioactivity was measured with a liquid scintillation counter. The rate of [C^14]-palmitic acid oxidation to [C^14]O2 was calculated and expressed as μmol/g tissue/hr.

**Q.** With “LRIVQCRSVEGSCGF (cysteine pairing not given here) [Ref No. 9401]” as the sequence, how does the “plasma levels of triglyceride versus control (in words)” value (C57BL/6J (ob/ob) mice; both sexes, ob/ob mice) read?
**A.** did not influence

**Q.** What about the “plasma levels of cholesterol versus control (in words)” value (C57BL/6J (ob/ob) mice; female ob/ob mice) of the same sequence?
**A.** only slightly lower

**Q.** What about the Plasma total cholesterol (C57BL/6J (ob/ob) mice; female ob/ob mice) of the same sequence?
**A.** 2.84 ± 0.29 mmol/L

**Q.** What about the Plasma triglyceride (C57BL/6J (ob/ob) mice; female ob/ob mice) of the same sequence?
**A.** 0.38 ± 0.11 mmol/L

**Q.** And the Plasma triglyceride (C57BL/6J (ob/ob) mice; male ob/ob mice)?
**A.** 0.58 ± 0.16 mmol/L

**Q.** And the Plasma total cholesterol (C57BL/6J (ob/ob) mice; male ob/ob mice, listed as hGH 177-191)?
**A.** 3.52 ± 0.39 mmol/L

**Q.** What about the “release of glycerol (in words)” value [1] of the same sequence?
**A.** enhanced

**Q.** And the Glycerol released (Porcine adipose Tissue)?
**A.** 1300 ± 160 nmol/mg tissue/hour

**Q.** And the “effect on acetyl CoA carboxylase (in words)” value (acetyl-CoA carboxylase)?
**A.** inhibiting

**Q.** What about the “oxidation of fatty acids (in words)” value [2] of the same sequence?
**A.** enhanced
